This is an account of results in US20250179022A1, “COMPOUND USED AS TYK2 INHIBITOR, PREPARATION METHOD THEREFOR, AND PHARMACEUTICAL USE THEREOF” (SHANGHAI ZHIGEN PHARMACEUTICAL & TECHNOLOGY CO. LTD., priority 2022, published 2025).

pIC50: −log10 of the molar value. Values after ≈ are worked out from the molar mass of the structure shown. Where two headings read alike, the source gives them in different places.

As a reminder, the Cmax is the maximum level reached in the sampled fluid or tissue. As usually defined, the MRT is the average time that molecules of a dose stay in the body. The half-life is how long it takes for the measured level to halve. The pIC50 is the IC50 on a negative log10 scale, so that one unit is a factor of ten. As usually defined, the Solubility is the dissolved amount per volume that the medium holds.

Data set [1] can be described thus: In vivo pharmacokinetic experiment in rats (oral). Also on record: species or system SD rats. The settings on record: 5 mg/kg. As to the method:
Experimental method: Healthy male SD rats were randomly grouped into 3 rats in each group and given the test compound orally. The rats were fasted for 12 h before the gavage experiment, and drank water freely, and were fed uniformly for 4 h after the administration of the compounds. Before (0 h) and 0.25, 0.5, 1.0, 2.0, 4.0, 6.0, 8.0 and 24 h after the administration of the test compounds, 0.2 mL of blood was collected from the jugular vein at the above set time points and placed in EDTA-K2 tubes, and the whole blood was collected and stored temporarily in an ice-water bath, and then centrifuged at 11,000 rpm for 5 min within 30 min, the plasma was separated, and frozen at −70° C. in a refrigerator for testing.

A further data set has as its target T1, JAK2 (Homo sapiens, UniProt O60674, cells depend on it, form not given).
T1 construct: fused on or other part: N-terminal part of TEL (ETV6) as oligomerising partner; it is the second protein of the fusion and part of the key; P41212 (Transcription factor ETV6)
Description: JAK family kinase selectivity assay, Ba/F3-TEL-JAK2 cell proliferation. It is filed as cell-based. The settings on record: read-out: Ba/F3 Cell IC50 JAK2; Ba/F3-TEL-JAK2, 72 h. The text has this: (§1) There are four kinases in the JAK family, respectively TYK2, JAK1, JAK2 and JAK3. JAK family kinase genes were introduced into the wild-type murine B lymphocytes (BaF3), and four BaF3 engineered cell lines were constructed respectively (Ba/F3-FL-TYK2-E957D, Ba/F3-TEL-JAK1, Ba/F3-TEL-JAK2, Ba/F3-TEL-JAK3). The growth and proliferation of these engineered cell lines were not dependent on IL-3, but on exogenously transferred JAK family kinases.
(§2) In this experiment, the inhibitory effects of the compounds on the proliferation of four cell types, Ba/F3-FL-TYK2-E957D, Ba/F3-TEL-JAK1, Ba/F3-TEL-JAK2, and Ba/F3-TEL-JAK3 were tested, and apoptosis was detected, and the IC50 values were calculated. The inhibitory activities of the compounds against TYK2, JAK1, JAK2, and JAK3 kinases were evaluated based on the IC50 value, thus assessing the JAK family kinase selectivity of the compounds.
(§3) The tested compounds, powder and stored at room temperature, were prepared into 10 mM stock solution with DMSO and stored at −20° C. away from light for use.
(§4) Compounds were formulated into dilute solutions which was 1000 times of the final concentration. The compound was prepared into 20-times of final concentration by diluting the compound with culture medium. 2 ul of 1000-times compound was added per well to 98 ul of culture medium.
(§5) Cells (provided by Sundia Pharmaceutical Technology (Shanghai) Co., Ltd.) were resuspended and counted using an automated cell counter. The cell suspension was diluted to the desired density based on BaF3 seeding density of 2000 cells per well. Each well was plated with 95 ul of cells and incubated at 37° C. for stable equilibrium. […]
(§6) The cell plate was equilibrated to room temperature. […] Detected with SpectraMax Paradigm.
(§7) • (1) IC50 was calculated using GraphPad Prism 5. • (2) % Inh=(Max signal-Compound signal)/(Max signal-Min signal)×100. • (3) Max signal was the positive control well with only the same volume of DMSO as the compound. • (4) Min signal was the negative control well with only the culture medium.

Data set [2] has as its system IFN-α-induced STAT phosphorylation. Description: IFN-α-induced STAT phosphorylation in human whole blood. It is filed as cell-based. Particulars: human whole blood, 20 ng/ml IFN-α, pSTAT5 in CD3-positive cells; read-out: IC50, IFN-α inflammatory pathway (IFN-α-induced STAT phosphorylation). The text has this:
The cytokine receptor attached to TYK2 mediates the signaling of type 1 interferon (IFN-α), which has been identified as the most important inflammatory factor of the autoimmune system. Human whole blood is induced with IFN-α, and TYK2 from lymphocytes in whole blood triggered STAT phosphorylation, which mediated subsequent inflammatory signaling. Therefore, TYK2 inhibitors have an inhibitory effect on IFN-α signaling, and the stronger the TYK2 inhibitory activity, the lower the level of STAT phosphorylation, and the stronger the corresponding anti-inflammatory effect.
In this experiment, the ability of the compounds to inhibit IFN-α-induced STAT phosphorylation in human whole blood were tested, and the IC50 values were calculated. The anti-inflammatory activity of the compounds was evaluated at the tissue level and evaluation of the inhibitory activity of compounds on the IFN-α inflammatory pathway based on the IC50 value.
The tested compound, powder and stored at room temperature, prepared into 10 mM stock solution with DMSO and stored at −80° C. in the refrigerator.
1× Fix/Lysis solution preparation: 5× Fix/Lysis and ddH2O were diluted according to 1:4 and preheated in 37° C. incubator, waiting for use.
Flow cytometric staining buffer preparation: 1 g of bovine serum albumin (BSA) and 1 mL of EDTA (0.5 M) solution were added to 500 mL of phosphate buffer solution (PBS) and stored at 4° C. in the refrigerator.
Compound dilution solution: 0.5 g of bovine serum albumin (BSA) was added to 500 mL of phosphate buffer solution (PBS), and stored at 4° C. in the refrigerator.
50 μg/mL IFN-alpha was diluted to 400 ng/mL with Compound Diluent and set aside.
67.5 μL of human whole blood was added to a 96-well plate using a 300 μL electric volley gun. 3.5 μL of prepared test compound was added, mixed well and placed in the cell culture incubator. After 60 min incubation, 400 ng/mL IFN-α (Biolegend 592702, final concentration 20 ng/ml) was added. The obtained was mixed well and placed in the cell culture incubator to continue incubation for 15 min.
After cytokine stimulation, 5 ul of PE-CD3 (BD 555333) antibody was added to each well, mixed and incubation was continued at 4° C. in the refrigerator. At the end, whole blood was transferred to a 96-well deep-well plate using a volley gun, pre-warmed 1× Fix/Lysis solution was added, and cells were lysed and fixed for 12 minutes at 37° C. in an incubator. After being washed, 400 μL of Perm III solution was added, vortexed and incubated on ice for 30 minutes. Cells were then stained by 100 μL of APC-pSTAT5 (1:100) antibody for 50 min at room temperature. This was followed by flow-through instrumentation. The expression of pSTAT5 was quantified by median fluorescence intensity after gating the CD3-positive signaling cluster.

For data set [3] the following is noted: dogs, 2 mg/kg, literature values; cited from earlier work.
In a further data set the target is T2, JAK3 (Homo sapiens, UniProt P52333, cells depend on it, form not given).
T2 construct: fused on or other part: N-terminal part of TEL (ETV6) as oligomerising partner; P41212 (Transcription factor ETV6)
The data set is described as follows: JAK family kinase selectivity assay, Ba/F3-TEL-JAK3 cell proliferation. It counts as cell-based. The settings on record: read-out: Ba/F3 Cell IC50 JAK3; Ba/F3-TEL-JAK3, 72 h.
From the text: as §1, §2, §3, §4, §5, §6, §7

Data set [4] can be described thus: Solubility in water (at pH=7). It counts as physicochemical. The text has this:
Test Example 6: Solubility of the Compounds of the Invention in Water (at pH=7)

For a further data set, the target named is T3, TYK2 (Homo sapiens, UniProt P29597, E957D).
T3 construct: host or cells: Ba/F3 (murine B lymphocytes)
The data set is described as follows: TYK2 kinase activity inhibition assay (Ba/F3-FL-TYK2-E957D cell proliferation, CellTiter-Glo). It is filed as cell-based. The settings on record: 72 h. The protocol: The TYK2 kinase gene was introduced into wild-type murine-derived B lymphocytes (BaF3) to construct the Ba/F3-FL-TYK2-E957D stable cell line.
In this experiment, the inhibitory effect of the compounds on the proliferation of Ba/F3-FL-TYK2-E957D cells were tested, apoptosis was detected, and the IC50 value was calculated. The inhibitory activity of the compounds against TYK2 kinase was evaluated based on the IC50 value.
as §3
Compounds were prepared into dilute solutions which was 1000 times of the final concentration. The compound was prepared into 20-times of the final concentration by diluting the compound with culture medium. 2 ul of 1000-times compound was added to per well to 98 ul of culture medium.
Cells (provided by Sundia Pharmaceutical Technology (Shanghai) Co., Ltd.) were resuspended and counted using an automated cell counter. The cell suspension was diluted to the desired density based on BaF3 seeding density of 2000 cells per well. Each well was plated with 95 ul of cells and incubated at 37° C. for stable equilibrium. 5 ul of 20-times compound was added to each well, with the wells to which the same volume of DMSO was added as a control.
The cell plate was equilibrated to room temperature. 40 ul CellTiter-Glo® Reagent was added to each well, shaken for 2 minutes and allowed to stand for 10 minutes. Detected with SpectraMax Paradigm.
• (1) IC50 was calculated using GraphPad Prism 5. • (2) % Inh=(Max signal−Compound signal)/(Max signal−Min signal)×100. • (3) Max signal was the positive control well with only the same volume of DMSO as the compound. • (4) Min signal was the negative control well with only the culture medium.

T3 sequence (P29597 whole entry E957D): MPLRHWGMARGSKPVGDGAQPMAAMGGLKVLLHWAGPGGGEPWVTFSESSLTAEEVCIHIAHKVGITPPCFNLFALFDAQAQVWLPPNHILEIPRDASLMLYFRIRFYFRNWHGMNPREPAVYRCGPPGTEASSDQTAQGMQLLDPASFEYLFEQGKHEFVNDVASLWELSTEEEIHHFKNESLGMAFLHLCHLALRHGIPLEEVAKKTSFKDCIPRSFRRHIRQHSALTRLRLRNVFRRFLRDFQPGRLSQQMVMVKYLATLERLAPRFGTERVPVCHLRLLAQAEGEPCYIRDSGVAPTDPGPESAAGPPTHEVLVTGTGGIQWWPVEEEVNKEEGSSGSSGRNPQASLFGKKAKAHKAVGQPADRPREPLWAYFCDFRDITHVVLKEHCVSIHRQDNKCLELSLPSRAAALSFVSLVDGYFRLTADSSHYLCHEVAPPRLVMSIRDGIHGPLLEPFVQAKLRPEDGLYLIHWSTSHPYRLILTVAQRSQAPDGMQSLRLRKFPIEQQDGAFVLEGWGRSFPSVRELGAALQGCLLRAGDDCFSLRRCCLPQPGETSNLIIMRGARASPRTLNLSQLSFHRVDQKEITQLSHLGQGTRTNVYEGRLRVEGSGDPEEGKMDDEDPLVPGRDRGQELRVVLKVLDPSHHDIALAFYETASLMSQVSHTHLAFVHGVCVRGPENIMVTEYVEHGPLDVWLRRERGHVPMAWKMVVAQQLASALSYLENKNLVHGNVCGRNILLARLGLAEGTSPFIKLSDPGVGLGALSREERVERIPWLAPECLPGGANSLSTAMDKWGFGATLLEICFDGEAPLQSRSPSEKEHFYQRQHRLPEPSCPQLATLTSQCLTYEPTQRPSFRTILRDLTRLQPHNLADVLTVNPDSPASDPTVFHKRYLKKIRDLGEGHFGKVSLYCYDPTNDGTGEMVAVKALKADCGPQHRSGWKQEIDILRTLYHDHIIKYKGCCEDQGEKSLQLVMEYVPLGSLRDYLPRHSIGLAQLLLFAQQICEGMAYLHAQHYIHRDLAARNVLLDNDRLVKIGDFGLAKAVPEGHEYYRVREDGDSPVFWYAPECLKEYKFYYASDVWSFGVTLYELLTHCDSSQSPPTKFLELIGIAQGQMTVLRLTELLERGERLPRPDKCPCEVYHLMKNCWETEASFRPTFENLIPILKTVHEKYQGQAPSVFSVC
T2 sequence (P52333 822-1111 limits assumed, change not shown): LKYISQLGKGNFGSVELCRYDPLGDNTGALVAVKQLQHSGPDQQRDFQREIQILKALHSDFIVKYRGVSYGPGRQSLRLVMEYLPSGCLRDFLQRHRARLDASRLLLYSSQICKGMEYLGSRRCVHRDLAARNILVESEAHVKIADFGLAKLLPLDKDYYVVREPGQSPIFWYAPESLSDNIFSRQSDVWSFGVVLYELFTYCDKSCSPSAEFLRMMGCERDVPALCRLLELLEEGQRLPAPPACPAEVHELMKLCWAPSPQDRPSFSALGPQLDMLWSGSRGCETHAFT
T1 sequence (O60674 849-1132 limits assumed, change not shown): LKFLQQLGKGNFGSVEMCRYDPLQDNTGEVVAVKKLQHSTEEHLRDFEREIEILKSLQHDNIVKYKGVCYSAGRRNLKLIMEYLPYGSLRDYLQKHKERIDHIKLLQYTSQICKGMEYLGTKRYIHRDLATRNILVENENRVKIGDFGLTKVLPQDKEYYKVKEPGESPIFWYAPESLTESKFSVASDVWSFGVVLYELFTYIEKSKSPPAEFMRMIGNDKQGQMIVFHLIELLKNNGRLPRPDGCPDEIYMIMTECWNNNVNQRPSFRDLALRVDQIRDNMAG

In data set [1], `[2H]C([2H])([2H])NC(=O)c1nnc(NC(=O)C2CC2)cc1Nc1cccc(-c2ncn(C)n2)c1OC` [BMS-986165, Deucravacitinib, reference compound] came in with an AUC of 2804 ngh/mL and an F of 28.5%. In data set [1] (male, SD, rat, plasma), this compound showed a Cmax of 229 ng/mL, a mean residence time (MRT) of 6.43 h and a half-life of 3.68 h. On JAK2, the GI50 was greater than 1000 nM. Besides, the negative-log IC50 (pIC50) in data set [2] is 7.63. Also, in data set [3], the AUC is 1312 ngh/mL, the maximum concentration (Cmax) is 222 ng/mL, the F is 35.5% and the T1/2 is recorded as 6.21 h. For the same compound, at JAK3, the GI50 is greater than 1000 nM. Moreover, the Solubility in data set [4] (pH 7, water, read-out: Solubility) was found to be 8.2 µg/mL (≈ 19.3 µM).

As to `CN=S(C)(=O)c1cc(C)cnc1Nc1cc(NC(=O)C2CC2)nnc1C(=O)NC` (centres unmarked) [Example 15, 6-(cyclopropylcarboxamido)-4-((3-(N,S-dimethylsulfoximino)-5-methylpyridin-2-yl)amino)-N-methylpyridazine-3-carboxamide], in data set [2], the pIC50 is 7.74.

For `CN=S(C)(=O)c1cc(F)c(N)nc1Nc1cc(NC(=O)C2CC2)nnc1C(=O)NC` (centres unmarked) [Example 22, 4-((6-amino-3-(N,S-dimethylsulfoximino)-5-fluoropyridin-2-yl)amino)-6-(cyclopropylcarboxamido)-N-methylpyridazine-3-carboxamide], the pIC50 in data set [2] is 7.89.

As to `CN=S(C)(=O)c1cc(Cl)c(N)nc1Nc1cc(NC(=O)C2CC2)nnc1C(=O)NC` (centres unmarked) [Example 23], the negative logarithm of the IC50 (pIC50) is 8.09 in data set [2] and 8.70 against TYK2.

As for `CN=S(C)(=O)c1cc(Br)c(N)nc1Nc1cc(NC(=O)C2CC2)nnc1C(=O)NC` (centres unmarked) [Example 24, 4-((6-amino-5-bromo-3-(N,S-dimethylsulfoximino)pyridin-2-yl)amino)-6-(cyclopropylcarboxamido)-N-methylpyridazine-3-carboxamide], the pIC50 was 8.12 in data set [2] and 8.89 at TYK2.

In the case of `CN=S(C)(=O)c1cc(C)c(N)nc1Nc1cc(NC(=O)C2CC2)nnc1C(=O)NC` (centres unmarked) [Example 26, 4-((6-amino-3-(N,S-dimethylsulfoximino)-5-methylpyridin-2-yl)amino)-6-(cyclopropylcarboxamido)-N-methylpyridazine-3-carboxamide], the pIC50 in data set [2] is 8.03.

As to `CN=S(C)(=O)c1cc2c(Cl)c[nH]c2nc1Nc1cc(NC(=O)C2CC2)nnc1C(=O)NC` (centres unmarked) [Example 32, 4-((3-chloro-5-(N,S-dimethylsulfoximino)-1H-pyrrolo[2,3-b]pyridin-6-yl)amino)-6-(cyclopropylamido)-N-methylpyridazine-3-carboxamide], the pIC50 in data set [2] is 7.79; against TYK2 it was 9.21.

Compound `[2H]C([2H])([2H])NC(=O)c1nnc(NC(=O)C2CC2)cc1Nc1nc(N)c(Cl)cc1[S@@](C)(=O)=NC` [Example 38] came in with a Solubility in data set [4] of 47 µg/mL (≈ 103 µM).
